The experiment deals with T1, Solute carrier family 26 member 9 (Homo sapiens) (UniProt Q7LBE3).
T1 sequence (whole entry): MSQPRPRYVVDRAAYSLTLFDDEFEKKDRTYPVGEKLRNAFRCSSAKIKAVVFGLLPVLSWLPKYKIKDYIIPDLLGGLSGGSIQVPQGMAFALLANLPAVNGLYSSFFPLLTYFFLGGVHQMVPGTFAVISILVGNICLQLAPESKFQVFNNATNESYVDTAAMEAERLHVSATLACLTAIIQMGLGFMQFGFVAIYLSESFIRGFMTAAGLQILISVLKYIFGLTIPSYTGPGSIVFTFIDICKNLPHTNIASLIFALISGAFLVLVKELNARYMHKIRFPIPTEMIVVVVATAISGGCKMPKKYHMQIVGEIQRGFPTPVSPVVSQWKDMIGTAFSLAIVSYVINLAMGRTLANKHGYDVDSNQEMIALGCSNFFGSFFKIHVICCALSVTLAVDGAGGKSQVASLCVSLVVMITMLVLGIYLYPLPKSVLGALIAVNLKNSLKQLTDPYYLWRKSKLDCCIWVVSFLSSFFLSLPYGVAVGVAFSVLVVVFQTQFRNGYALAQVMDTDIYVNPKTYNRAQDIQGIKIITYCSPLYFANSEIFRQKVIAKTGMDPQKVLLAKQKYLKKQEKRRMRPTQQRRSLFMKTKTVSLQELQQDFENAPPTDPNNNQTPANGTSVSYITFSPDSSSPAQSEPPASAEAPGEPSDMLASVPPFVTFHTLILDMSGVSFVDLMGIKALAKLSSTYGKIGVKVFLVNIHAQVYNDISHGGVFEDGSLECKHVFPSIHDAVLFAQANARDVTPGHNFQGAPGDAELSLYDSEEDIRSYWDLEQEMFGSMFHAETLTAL
Put plainly: Chloride uptake by the Anion Transporter/Exchanger Protein 9 (SLC26A9) as assessed by a Cl- sensitive FRET (Fluorescence Resonance Energy Transfer) sensor (SuperClomeleon) in HEK-293 cells stably transfected with SLC26A9 (PubChem AID: 1794832). In kind it is functional, cell-based. The settings on record: HEK293.

Take `O=C(O)c1cccnc1Nc1cccc(C(F)(F)F)c1`: the Inhibition (500 µM) is greater than 30%.
With `Cl`, the proof of principle result was “Substrate. In Comparison To Wild-Type, Cells Expressing Slc26A9 Showed A Specific Transporter Activity, Upon Substrate Addition, Detected As Significantly Higher Sensor Fluorescence Quenching”.

The values above are taken from ChEMBL document CHEMBL5209566, “Superclomeleon biosensor-based assay for SLC26A9 using HEK293 SLC26A9 JumpIn OE cells” (2022).
